Source: ChEMBL document CHEMBL4342510, “Design and Synthesis of Benzene Congeners of Resolvin E2, a Proresolving Lipid Mediator, as Its Stable Equivalents” (ACS Med Chem Lett, 2020)
The source made the active and inactive calls. The calls are words filed in the database; no cut-off is given here.

Columns and labels:
[1] = Metabolic stability in human liver microsomes assessed as parent compound remaining measured after 6 hrs by HPLC analysis; type: ADME, Microsome; conditions: read-out: Stability
Mus musculus [2] = experiment: Antiinflammatory activity against BALB/c mouse model of heat-killed Propionibacterium acnes-induced peritonitis assessed as decrease in number of neutrophils at 300 pg, ip administered 12 hrs post Propionibacterium acnes injection and measured after 12 hrs; type: functional, organism-based
Mus musculus [3] = experiment: Antiinflammatory activity against ip dosed BALB/c mouse model of heat-killed Propionibacterium acnes-induced peritonitis assessed as decrease in number of neutrophils administered 12 hrs post Propionibacterium acnes injection and measured after 12 hrs; type: functional, organism-based

Row | remaining at 6 h [1] [%] | SMILES | inhibition (Mus musculus [2]) | inhibition (Mus musculus [3])
1 | < 40 | CC[C@@H](O)/C=C/c1ccc(C/C=C/[C@@H](O)CCCC(=O)O)cc1 | inactive | –
2 | – | CC[C@@H](O)/C=C/c1cccc(C/C=C/[C@@H](O)CCCC(=O)O)c1 | inactive | –
3 | < 40 | CC[C@@H](O)/C=C/C=C\C/C=C\C/C=C\C=C\[C@@H](O)CCCC(=O)O | Active | Dose-dependent effect
4 | – | CC[C@@H](O)/C=C/c1ccccc1C/C=C/[C@@H](O)CCCC(=O)O | Active | Dose-dependent effect
